Results: ChEMBL document CHEMBL5608205, “Design, synthesis and biological evaluation of novel SIRT3 inhibitors targeting both NAD+ and substrate binding sites for the treatment of acute myeloid leukemia” (Eur J Med Chem, 2024)

Columns and labels:
[1] = biological target: T1, NAD-dependent protein deacetylase sirtuin-3, mitochondrial (Homo sapiens, UniProt Q9NTG7); experiment: Inhibition of wild type C-terminal human SIRT3 (118 to […] residues) expressed in Escherichia coli strain BL21DE3 Rosetta2 using Fluor de lys as substrate incubated for 30 mins by fluorescence based analysis
T1 sequence (Q9NTG7 whole entry): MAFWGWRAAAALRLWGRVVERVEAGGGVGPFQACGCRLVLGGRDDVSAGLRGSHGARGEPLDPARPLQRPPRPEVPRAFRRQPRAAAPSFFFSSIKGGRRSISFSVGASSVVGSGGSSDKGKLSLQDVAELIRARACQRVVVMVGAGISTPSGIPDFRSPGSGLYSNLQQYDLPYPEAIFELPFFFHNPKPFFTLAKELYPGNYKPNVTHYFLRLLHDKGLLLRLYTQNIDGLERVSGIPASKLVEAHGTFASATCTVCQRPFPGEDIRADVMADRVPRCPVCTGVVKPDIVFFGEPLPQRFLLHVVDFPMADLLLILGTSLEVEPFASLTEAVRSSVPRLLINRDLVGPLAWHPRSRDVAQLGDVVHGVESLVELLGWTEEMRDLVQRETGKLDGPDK

MV4-11 [2] = experiment: cells; conditions: Homo sapiens, MV4-11, 24 h
MOLM-13 [3] = experiment: cells; conditions: Homo sapiens, MOLM-13, 24 h
HL-60 [4] = experiment: cells; conditions: Homo sapiens, HL-60, 24 h
HL-60 [5] = experiment: Induction of apoptosis in human HL-60 cells assessed as viable cells at […] incubated for 24 hrs by annexin V/FITC and Propidium Iodide staining based flow cytometry analysis (reference value: 98.9%); type: functional; conditions: dose 2.5 µM, read-out: Activity
MOLM-13 [6] = experiment: Induction of apoptosis in human MOLM-13 cells assessed as viable cells at 10 uM incubated for 24 hrs by annexin V/FITC and Propidium Iodide staining based flow cytometry analysis (reference value: 98.1%); type: functional; conditions: read-out: Activity
[7] = Toxicity in nude mouse assessed as effect on heart at 5 mg/kg, ip administered daily for upto 14 days; type: organism-based; conditions: in vivo, 336 h, time < 14 day
[8] = Toxicity in nude mouse assessed as effect on body weight at 5 mg/kg, ip administered daily for upto 14 days; type: organism-based; conditions: in vivo, 336 h, time < 14 day
[9] = Toxicity in nude mouse assessed as effect on brain at 5 mg/kg, ip administered daily for upto 14 days; type: organism-based; conditions: in vivo, 336 h, time < 14 day
HL-60 [10] = experiment: Induction of apoptosis in human HL-60 cells assessed as viable cells at 5 uM incubated for 24 hrs by annexin V/FITC and Propidium Iodide staining based flow cytometry analysis (reference value: 98.9%); type: functional; conditions: read-out: Activity
[11] = Toxicity in nude mouse assessed as effect on lung at 5 mg/kg, ip administered daily for upto 14 days; type: organism-based; conditions: in vivo, 336 h, time < 14 day
HL-60 [12] = experiment: Induction of apoptosis in human HL-60 cells assessed as viable cells at 10 uM incubated for 24 hrs by annexin V/FITC and Propidium Iodide staining based flow cytometry analysis (reference value: 98.9%); type: functional; conditions: read-out: Activity
MOLM-13 [13] = experiment: Induction of apoptosis in human MOLM-13 cells assessed as viable cells at 5 uM incubated for 24 hrs by annexin V/FITC and Propidium Iodide staining based flow cytometry analysis (reference value: 98.1%); type: functional; conditions: read-out: Activity
MOLM-13 [14] = experiment: Induction of apoptosis in human MOLM-13 cells assessed as viable cells at […] incubated for 24 hrs by annexin V/FITC and Propidium Iodide staining based flow cytometry analysis (reference value: 98.1%); type: functional; conditions: dose 2.5 µM, read-out: Activity
[15] = Toxicity in nude mouse assessed as effect on kidney at 5 mg/kg, ip administered daily for upto 14 days; type: organism-based; conditions: in vivo, 336 h, time < 14 day
MV4-11 [16] = experiment: Induction of apoptosis in human MV4-11 cells assessed as viable cells at […] incubated for 24 hrs by annexin V/FITC and Propidium Iodide staining based flow cytometry analysis (reference value: 95.4%); type: functional; conditions: dose 2.5 µM, read-out: Activity
[17] = biological target: T2, NAD-dependent protein deacetylase sirtuin-2 (Homo sapiens, UniProt Q8IXJ6); experiment: Inhibition of recombinant human SIRT2 using Fluor de lys as substrate incubated for 30 mins by fluorescence based analysis
T2 sequence (Q8IXJ6 whole entry): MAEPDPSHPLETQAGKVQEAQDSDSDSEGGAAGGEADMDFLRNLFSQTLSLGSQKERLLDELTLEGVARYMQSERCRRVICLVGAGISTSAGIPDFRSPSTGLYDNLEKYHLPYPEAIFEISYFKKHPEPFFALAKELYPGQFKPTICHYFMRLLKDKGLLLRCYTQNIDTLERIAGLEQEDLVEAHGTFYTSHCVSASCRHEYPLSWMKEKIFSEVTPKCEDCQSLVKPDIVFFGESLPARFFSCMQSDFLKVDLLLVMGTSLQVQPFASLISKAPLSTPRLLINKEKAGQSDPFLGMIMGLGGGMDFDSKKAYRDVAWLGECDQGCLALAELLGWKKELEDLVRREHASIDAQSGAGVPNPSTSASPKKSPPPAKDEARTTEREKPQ

[18] = Toxicity in nude mouse assessed as effect on spleen at 5 mg/kg, ip administered daily for upto 14 days; type: organism-based; conditions: in vivo, 336 h, time < 14 day
[19] = Toxicity in nude mouse assessed as effect on liver at 5 mg/kg, ip administered daily for upto 14 days; type: organism-based; conditions: in vivo, 336 h, time < 14 day
MV4-11 [20] = experiment: Induction of apoptosis in human MV4-11 cells assessed as viable cells at 5 uM incubated for 24 hrs by annexin V/FITC and Propidium Iodide staining based flow cytometry analysis (reference value: 95.4%); type: functional; conditions: read-out: Activity
MV4-11 [21] = experiment: Induction of apoptosis in human MV4-11 cells assessed as viable cells at 10 uM incubated for 24 hrs by annexin V/FITC and Propidium Iodide staining based flow cytometry analysis (reference value: 95.4%); type: functional; conditions: read-out: Activity
[22] = biological target: T2, NAD-dependent protein deacetylase sirtuin-2; experiment: Inhibition of SIRT2 (unknown origin)
[23] = biological target: T1, NAD-dependent protein deacetylase sirtuin-3, mitochondrial; experiment: Inhibition of recombinant human SIRT3 using Fluor de lys as substrate incubated for 30 mins by fluorescence based analysis

IC50 (MV4-11 [2]) | IC50 (MOLM-13 [3]) | IC50 (HL-60 [4]) | Structure (SMILES) | also measured
14.7 µM | 10.6 µM | 17.4 µM | NC(=O)c1cc2ncnc(N3[C@@H]4CC[C@H]3CN(C(=O)Nc3ccc5ccccc5c3)C4)c2s1 | 
7.28 µM | 3.47 µM | 5.45 µM | NC(=O)c1cc2ncnc(N3CCN(C(=O)Nc4cc(Cl)cc(Cl)c4)CC3)c2s1 | 
> 50 µM | 33.1 µM | > 50 µM | NC(=O)c1cc2ncnc(N3CCN(C(=O)Nc4ccc(F)cc4F)CC3)c2s1 | 
> 50 µM | > 50 µM | > 50 µM | NC(=O)c1cc2ncnc(N3[C@@H]4C[C@H]3CN(C(=O)Nc3ccccc3Cl)C4)c2s1 | 
26.3 µM | 41.5 µM | 31.5 µM | NC(=O)c1cc2ncnc(N3[C@@H]4C[C@H]3CN(C(=O)Nc3cc(C(F)(F)F)cc(C(F)(F)F)c3)C4)c2s1 | 
> 50 µM | > 50 µM | > 50 µM | NC(=O)c1cc2ncnc(N3[C@@H]4C[C@H]3CN(C(=O)Nc3ccc(F)cc3F)C4)c2s1 | 
34.1 µM | 36.1 µM | > 50 µM | NC(=O)c1cc2ncnc(N3[C@@H]4C[C@H]3CN(C(=O)Nc3cccc(Cl)c3)C4)c2s1 | 
5.09 µM | 2.35 µM | 1.15 µM | NC(=O)c1cc2ncnc(N3[C@@H]4CC[C@H]3CN(C(=O)Nc3ccc(Cl)c(Cl)c3)C4)c2s1 | IC50 [23]: 0.125 µM

The remaining lines, values behind:

Structure (SMILES) | IC50 (MV4-11 [2]) | IC50 (MOLM-13 [3]) | IC50 (HL-60 [4]) | also measured
Oc1cc(O)cc(/C=C/c2ccc(Br)cc2)c1 |  |  |  | IC50 [1]: 143 µM
c1cncc(-c2cnn[nH]2)c1 | 27.8 µM | 12.6 µM | > 50 µM | 
C#Cc1cccc(NC(=O)N2C[C@H]3C[C@@H](C2)N3c2ncnc3cc(C(N)=O)sc23)c1 | 28.7 µM | 33.2 µM | 38.2 µM | 
NC(=O)c1cc2ncnc(N3[C@@H]4CC[C@H]3CN(C(=O)Nc3ccc(C(F)(F)F)cc3)C4)c2s1 |  |  |  | viability at […] (HL-60 [5]): 84.5%; viability at 10 µM (MOLM-13 [6]): 62.5%; Activity [7]: Non-Toxic; Activity [8]: Non-Toxic; Activity [9]: Non-Toxic; viability at 5 µM (HL-60 [10]): 78.2%; Activity [11]: Non-Toxic; viability at 10 µM (HL-60 [12]): 73%; viability at 5 µM (MOLM-13 [13]): 67.5%; viability at […] (MOLM-13 [14]): 90.4%; Activity [15]: Non-Toxic; viability at […] (MV4-11 [16]): 85.7%; IC50 [17]: 0.474 µM; Activity [18]: Non-Toxic; Activity [19]: Non-Toxic; viability at 5 µM (MV4-11 [20]): 78.2%; viability at 10 µM (MV4-11 [21]): 65%
NC(=O)c1cc2ncnc(N3CCN(C(=O)Nc4ccccc4F)CC3)c2s1 | > 50 µM | 39.8 µM | > 50 µM | 
Cc1ccc(NC(=O)N2C[C@H]3C[C@@H](C2)N3c2ncnc3cc(C(N)=O)sc23)cc1 | > 50 µM | > 50 µM | > 50 µM | 
NC(=O)c1cc2ncnc(N3[C@@H]4C[C@H]3CN(C(=O)Nc3ccc(Cl)c(Cl)c3)C4)c2s1 | 19.9 µM | 25 µM | 27.1 µM | 
NC(=O)c1cc2ncnc(N3CCN(C(=O)Nc4ccc(Cl)cc4)CC3)c2s1 | 12.3 µM | 4.26 µM | 36.3 µM | 
Cc1ccc(NC(=O)N2C[C@H]3CC[C@@H](C2)N3c2ncnc3cc(C(N)=O)sc23)cc1 | 18.1 µM | 4.73 µM | 36.9 µM | 
Cc1ccc(NC(=O)N2CCN(c3ncnc4cc(C(N)=O)sc34)CC2)cc1 | 25.7 µM | 6.27 µM | 36.3 µM | 
NC(=O)c1cc2ncnc(N3[C@@H]4C[C@H]3CN(C(=O)Nc3ccc(C(F)(F)F)cc3)C4)c2s1 | 26.3 µM | 38.3 µM | 36.6 µM | 
CCNC(=S)c1ccc(C(=O)NCCC2CCN(c3ncnc4cc(C(N)=O)sc34)CC2)s1 |  |  |  | IC50 [22]: 0.0027 µM
NC(=O)c1cc2ncnc(N3CCN(C(=O)NC4CCCCC4)CC3)c2s1 | 33.3 µM | 17.7 µM | 37.1 µM | 
